The record followed here is PMC6522941, “Design, synthesis, and anticancer evaluation of novel quinoline derivatives of ursolic acid with hydrazide, oxadiazole, and thiadiazole moieties as potent MEK inhibitors” (Journal of Enzyme Inhibition and Medicinal Chemistry, 2019).

Assay [1] deals with HeLa cells. The experiment in a line: ROS generation assay (DCFH-DA). It is filed as cell-based, human. As to conditions: 0.2 μM, 48 h. The method, then: ROS generation assay was performed by using the reactive oxygen species assay kit (Beyotime Biotech., Nantong, China). Intracellular ROS generation was tested through dichlorodihydro fluorescein diacetate (DCFH-DA) assay. DCFH-DA is taken up by HeLa cells, and then activated by esterase-mediated cleavage of acetate to form DCFH, which is trapped in the cells. DCFH is converted to fluorescein DCF in the presence of ROS. HeLa cells were seeded in six-well plates and incubated with different concentrations of compound 4d for 48 h. After removing the compound solution, cells were treated with 10 μM of DCFH-DA at 37 °C for 20 min. Subsequently, the cells were washed with PBS for three times and then exposed to light. Immediately after light exposure, the fluorescence intensity of dichlorofluorescein (DCF) was measured with excitation at 488 nm and emission at 525 nm by a flow cytometry (Becton-Dickinson FACSCalibur, Totowa, NJ, USA).
ROS has been reported to be involved in early stages of apoptosis in many cellular systems. […] HeLa cells were exposed to compound 4d at 0 ∼ 0.2 μM concentrations for 48 h and the intracellular fluorescence intensity was quantitatively analysed by flow cytometry. […]

The test system of a further assay is MDA-MB-231 cells. As to the kind of experiment: MTT cytotoxic assay, MDA-MB-231. It counts as cell-based, human. The conditions noted are these: Homo sapiens, MDA-MB-231, 72 h. The method, then: (§1) Human breast cancer cell line (MDA-MB-231), cervical carcinoma cell line (HeLa), the liver cancer cell line (SMMC-7721) and normal hepatocyte cell line (QSG-7701) were maintained in Dulbecco Modified Eagle Medium (DMEM) containing 4.0 mM L-Glutamine and 4500 mg/L Glucose supplemented with 10% (v/v) foetal bovine serum (FBS) and 100 U/mL penicillin/streptomycin at 37 °C in humidified atmosphere of 5% CO2 and 95% air.
(§2) Exponentially growing MDA-MB-231, Hela and SMMC-7721 cell lines were seeded into 96-well plate for 100 μL and treated with different concentrations of the synthetic compounds for 72 h, and then 10 μL of MTT (10 mg/mL) was added and incubation for 3 ∼ 4 h at 37 °C. The generated purple formazan crystals from viable can be dissolved by adding 100 μL DMSO. The plates were swirled gently for 5 min and quantified by measuring the OD of the plates at the wavelength of 540 nm. Each concentration was repeated in three wells and the same experimental condition was provided for all compounds. The results were expressed as IC50 values with standard deviations, which was defined as the concentration at which 50% survival of cells was discerned. Etoposide was co-assayed as positive control.
(§3) The in vitro cytotoxic activity of derivatives 3a–d, 4a–h, 5a–h, and 6a–h were evaluated by MTT assay against human breast cancer cell line (MDA-MB-231), cervical carcinoma cell line (HeLa), hepatocarcinoma cell line (SMMC-7721) and human normal hepatocyte cell line (QSG-7701). The anticancer drug etoposide was co-assayed as the positive control. All tested compounds were dissolved in DMSO and the stock solutions were diluted by DMEM medium before treatment of the cultured cells.
In general terms: Formazan colour is commonly taken as a measure of viable cells.

The next assay has as its system SMMC-7721 cells. The experiment in a line: MTT cytotoxic assay, SMMC-7721. It counts as cell-based. The conditions noted are these: Homo sapiens, 72 h. The method, then:
as §1, §2, §3

In the next assay the test system is QSG-7701 cells. The experiment in a line: MTT cytotoxic assay, normal hepatocyte QSG-7701. It is filed as cell-based, human. The method, then: as §1, §2, §3
Assay [2] has as its system HeLa cells. As to the kind of experiment: JC-1 mitochondrial membrane potential assay. It counts as cell-based, human. As to conditions: 24 h, control 7.59. The method, then:
The JC-1 mitochondrial membrane potential assay kit (Keygene Biotech., Nanjing, China) was employed to measure mitochondrial depolarisation in HeLa cells. Briefly, cells cultured in six-well plates after indicated treatments by compound 4d were incubated with an equal volume of JC-1 staining solution (5 μg/mL) at 37 °C for 20 min and rinsed twice with PBS. Mitochondrial membrane potentials were monitored by determining the relative amounts of dual emissions from mitochondrial JC-1 monomers or aggregates using flow cytometry (Becton-Dickinson FACSCalibur, New York, NY, USA). Mitochondrial membrane depolarisation is indicated by an increase in the percentage of cells with low ΔΨm (green fluorescence and lower right quadrant) compared with cells with high ΔΨm (red fluorescence and upper right quadrant).
As a kind of important organelle, Mitochondria play indispensable roles not only on supplying metabolic energy in the form of ATP, but also on regulating the signal transmission during the apoptosis of cancer cells. In addition, the mitochondrial dysfunction can be aroused under high ROS exposure, leading to the collapse of mitochondrial membrane potential (ΔΨm), which is a characteristic phenomenon of early apoptosis. Loss of ΔΨm can be detected using the fluorescent cationic dye JC-1, which spontaneously forms red fluorescent dimers (J aggregates) under high ΔΨm, whereas its monomeric form showing green fluorescence is prevalent in cells with low ΔΨm. Green and red fluorescence can be observed at 527 and 590 nm, respectively. Thus, changes in the green/red fluorescence ratio reflect the variation in ΔΨm, which can be quantitatively analysed by flow cytometry.

In a further assay the target is T1, MEK1 (Homo sapiens, UniProt Q02750).
T1 construct: purchased Carna Biosciences, Kobe, Japan
The experiment in a line: In vitro MEK1 kinase assay (ADP-Glo). It is filed as biochemical. As to conditions: recombinant GST-MEK1, GST-ERK2 (inactive) substrate, 10 μM ATP. The method, then:
An in vitro kinase assay of MEK1 was performed using ADP-Glo kinase assay (Promega, Madison, WI, USA) according to the manufacturer’s protocol. […] Reactions were stopped by adding 5 μL of ADP-Glo reagent to each well. After incubating at 22 °C for 40 min, 10 μL of the kinase detection reagent was added and the plates were incubated for another 30 min at 22 °C in the dark. The reaction mixture was analysed by EnSpire (PerkinElmer, Waltham, MA, USA).
The Raf/MEK/ERK pathway is the downstream of Ras activation, and the abnormal expression or phosphorylation of the associated proteins is essential for cancer cell proliferation. In this pathway, MEK kinase is an important anticancer target because of its key roles in regulating the cancer cell apoptosis and oncogenic transformation[51]^,[52]. Among MEK proteins, MEK1 and MEK2 are known as substrate-specific kinases which phosphorylate their downstream kinase ERK1/2.

T1 sequence (Q02750 whole entry): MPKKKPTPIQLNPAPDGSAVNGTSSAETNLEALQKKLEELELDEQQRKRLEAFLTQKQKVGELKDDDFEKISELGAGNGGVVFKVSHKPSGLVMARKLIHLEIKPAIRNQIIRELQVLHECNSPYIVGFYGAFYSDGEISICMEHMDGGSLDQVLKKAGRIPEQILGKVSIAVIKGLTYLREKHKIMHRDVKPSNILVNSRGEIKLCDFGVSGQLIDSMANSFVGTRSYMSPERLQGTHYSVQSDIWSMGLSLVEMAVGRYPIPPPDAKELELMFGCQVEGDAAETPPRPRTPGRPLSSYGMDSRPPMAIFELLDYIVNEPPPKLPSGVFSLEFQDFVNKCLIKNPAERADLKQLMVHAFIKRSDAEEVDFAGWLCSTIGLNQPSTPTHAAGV

As a reminder, the IC50 is the point on the concentration scale where inhibition reaches its midpoint. Turning to `CC(=O)NNC(=O)C12CCC(C)C(C)C1C1=CCC3C4(C)Cc5cc6cc(Cl)ccc6nc5C(C)(C)C4CCC3(C)C1(C)CC2` (stereo not shown) [Compound 4d, N-[5′-chloro-ursa-12-en-(2,3)-quinoline-28-oyl]-acetohydrazide], the “increase of mean fluorescence intensity compared to the control group” value in the assay with HeLa cells [1] was 84%. For the same compound, in the assay with HeLa cells [1] (control 13.18), the “% relative ROS raised cells” value was 49.66%. The IC50 in the assay with MDA-MB-231 cells turned out to be 0.12 ± 0.01 µM; with SMMC-7721 cells it was 0.34 ± 0.03 µM; in the assay with QSG-7701 cells (Homo sapiens, QSG7701, MTT, normal hepatocyte cell line) it was 10.8 ± 0.72 µM; on MEK1, 64 nM. The compound also came in with a Selectivity in the assay with QSG-7701 cells (IC50 (QSG-7701)/IC50 (HeLa)) of 134.5. In addition, the “Cells with low ΔΨm (green fluorescence, lower right quadrant)” value in the assay on HeLa cells [2] (0.05 μM) is 36.33%; in the assay on HeLa cells [2] (0.1 μM) it was 54.08%; with HeLa cells [2] (0.2 μM), 70.83%.
